Assay results taken from ChEMBL document CHEMBL4052825, “Identification of Novel Coumestan Derivatives as Polyketide Synthase 13 Inhibitors against Mycobacterium tuberculosis” (J Med Chem, 2018).
In brackets after ≈: the same amount, converted by molar mass.

Assays:
[1] = test system: Mycobacterium tuberculosis; assay: Antitubercular activity against isoniazid/rifampicin/fluoroquinolone-resistant Mycobacterium tuberculosis; assay type: functional
[2] = test system: Mycobacterium tuberculosis; assay: Antitubercular activity against resistant Mycobacterium tuberculosis harboring PKS13 mutant after 12 to 24 hrs by MABA; assay type: functional
[3] = Selectivity ratio of MIC=<90 for resistant Mycobacterium tuberculosis harboring PKS13 mutant to MIC=<90 for Mycobacterium tuberculosis H37Rv

Compound: CCOC(=O)c1c(NC(=O)c2c(F)c(F)c(F)c(F)c2F)sc2c1CCN(CC)C2
- MIC [1]: 0.2 to 0.4 µM (≈ 0.0897 to 0.179 µg/mL)

Compound: CCOC(=O)c1c(-c2ccc(F)cc2)oc2ccc(O)c(CN3CCCCC3)c12
- MIC=<90 [2]: 4 µg/mL (≈ 10.1 µM)
- Selectivity ratio [3]: 8

Compound: COc1ccc2c(c1)oc(=O)c1c2oc2ccc(O)c(CN3CCCCC3)c21
- MIC=<90 [2]: 16 µg/mL (≈ 42.2 µM)
- Selectivity ratio [3]: 64

Compound: O=c1oc2ccccc2c2oc3ccc(O)c(CN4CCCCC4)c3c12
- MIC=<90 [2]: 16 µg/mL (≈ 45.8 µM)
- Selectivity ratio [3]: 64 to 128
